Here are results for 14 substances from patent US20240248078A1, “Compositions For and Methods of Evaluating Gap Junction Formation and Function” (Duke University, priority 2021, published 2024).

Assay type in all cases: cell-based, human
One assay deals with HEK 293FT cells. Kind of assay: Flow enabled tracking of connexosomes in HEK 293FT cells (FETCH). The settings on record: for homotypic FETCH score (docking): homotypic pairing of fluorescent C-terminal fusion constructs, Q2/(Q1+Q2+Q3); for heterotypic FETCH score when paired with Cx43: co-plated with cells expressing Cx43. The method, then: FETCH analysis is fundamentally a two-component system. To complete FETCH analysis, replica multi-well plates were transfected with either of the two components being evaluated. The media of transfected wells was changed 16-18 hrs post-transfection and cells were trypsinized and experimental counterparts were combined at ˜20 hrs post-transfection. The entirety of combined samples were then plated onto new, 10 μg/mL Fibronectin coated wells of the same size, resulting in hyperdensity and over confluency. Following co-plating, samples were incubated for ˜20 hr-24 hrs, at which point samples were trypsinized, resuspended in phosphate buffered saline with 10 U/mL DNAse and fixed with paraformaldehyde (f/c of 1.5%). Co-plated samples in 96 well plates were resuspended to a final volume of ˜150 μL, samples from 24-well plates were resuspended to a final volume of ˜600 μL.
Flow cytometry data was collected on either a BD FACSCanto II (2-color experiments and high-throughput 96-well plates; 488 nm and 633 nm lasers), which utilizes the BD FACSDiVa software. Samples were analyzed in two selection gates prior to their fluorescence evaluation. First, presumable HEK cells were identified by evaluating sample forward vs side scatter area. Next, single cells were selected by evaluating cells that maintained a linear correlation of forward scatter height to forward scatter area. Finally, the fluorescence profiles of each sample were generated.
Each FETCH experiment produces “*.fcs” files that contain all the channel data for fluorescence in the sample. The automated pipeline loads these files, extracts FSC-A, SSC-A, and FSC-H. Depending on the machine used, green channel was loaded as 1-A or as FITC-A. For the red channel, both APC-A (RFP670) with PE-A (mApple) can be used or 5-A(RFP670) can be used. Next, the code produces two matrices containing SSC-A with FSC-A, and FSC-A with FSC-H, respectively.
The first gate is drawn on the FSC-A vs SSC-A axes to exclude cellular debris which clusters in the lower left corner and the cells that are saturating the laser (at the max of both axes). On an FSC-A vs SSC-A plot, the cellular debris usually is smoothly transitioning into the population of intact cells, therefore a Gaussian kernel density estimator with the estimator bandwidth selection defined by the Scott's Rule is used to draw contours around the data in SSC-A vs FSC-A matrix. Next, a set of heuristics was used to determine which of the contour lines should be used to define the first gate. Specifically, cellular debris usually clusters below 25000 on both axes, so any contour that includes values at or below is excluded. Similarly, any contour within a 1000 of the maximum value of each axis is also excluded. Of the remaining contours, the largest one is chosen, and an oval equation is fitted to the points defining that contour to attenuate occasional protrusions of the contour that tap into cellular debris population in rare cases. The fitted oval becomes the first gate.
For all the elements inside of the first gate, a second gate was drawn in the axis of FSC-A and FSC-H to exclude non-single cells. For the second gate, a line was fit to all the points. Next, for each point, a norm to the fit line was found and a standard deviation of all such norms was found. Using this standard deviation, a second gate 4 standard deviations away from the fitted line was defined on both sides and excluded all the points outside of this gate.
Upon applying the first two gates, the data was finally plotted with the red fluorophore on the y axis and the green fluorophore on the x axis. If a sample contained more than two fluorophores, then the last gate was drawn for each possible combination. Since some readings are below zero due to fluorescence compensation, all the data points were shifted by the smallest value along both axes and then a natural log of fluorescence levels was taken. […]

For another assay, the system named is 293 cells. Kind of assay: FETCH in 293 cell line. The settings on record: compared with HEK 293FT. An excerpt: (§1) For FETCH to be successful, cells must overexpress Cx-FP constructs to a sufficient degree to promote observable fluorescence exchange.
A further assay concerns HeLa cells. Briefly: FETCH in HeLa cell line. Conditions: compared with HEK 293FT.
Source text: as §1

Take “Cx31.1: human connexin 31.1 (GJB5), C-terminal fluorescent fusion protein”: the “homotypic FETCH score (docking)” value in the assay with HEK 293FT cells was “failed to generate a significant homotypic FETCH score”.

In the case of “Cx31.3: human connexin 31.3, C-terminal fluorescent fusion protein”, the “homotypic FETCH score (docking)” value with HEK 293FT cells is “failed to generate a significant homotypic FETCH score”.

Turning to “Cx31.9: human connexin 31.9 (GJD3), C-terminal fluorescent fusion protein”, in the assay on HEK 293FT cells, the “homotypic FETCH score (docking)” value is given as “failed to generate a significant homotypic FETCH score”.

In the case of “Cx32: human connexin 32 (GJB1), C-terminal fluorescent fusion protein”, in the assay with HEK 293FT cells, the “heterotypic FETCH score when paired with Cx43” value (“heterotypic FETCH score” for short) is given as “failed to dock” and the “homotypic FETCH score (docking)” value is on record as “significantly positive”.

As for “Cx36: human connexin 36 (GJD2), C-terminal fluorescent fusion protein”, in the assay with HEK 293FT cells, the “heterotypic FETCH score” value is recorded as “failed to dock” and the “homotypic FETCH score (docking)” value was “significantly positive”.

Turning to “Cx43-ELs-Cx26: chimeric construct of the intracellular and transmembrane regions of Cx43 and the ELs of Cx26”, the “FETCH docking when paired with Cx26” value in the assay on HEK 293FT cells (co-plated with cells expressing Cx26) was “preferentially docked”. For the same substance, the “heterotypic FETCH score” value in the assay with HEK 293FT cells is given as “not Cx43”.

Consider “Cx43: human connexin 43 (GJA1), expressed as C-terminal fluorescent fusion protein”, for which the “homotypic FETCH score (docking)” value in the assay with HEK 293FT cells is “significantly positive”. Also, the FETCH score entry in the assay with 293 cells and in the assay with HeLa cells was “substantially lower” each time.

In the case of “Cx45: human connexin 45 (GJC1), C-terminal fluorescent fusion protein”, in the assay with HEK 293FT cells, the “heterotypic FETCH score” value was “positive” and the “homotypic FETCH score (docking)” value is “significantly positive”.

In the case of “Cx46: human connexin 46 (GJA3), C-terminal fluorescent fusion protein”, the “homotypic FETCH score (docking)” value with HEK 293FT cells was “failed to generate a significant homotypic FETCH score”.

As for “Cx50: human connexin 50 (GJA8), C-terminal fluorescent fusion protein”, the “homotypic FETCH score (docking)” value in the assay with HEK 293FT cells is recorded as “failed to generate a significant homotypic FETCH score”.

With “Cx59: human connexin 59 (GJA9), C-terminal fluorescent fusion protein”, the “homotypic FETCH score (docking)” value with HEK 293FT cells is given as “failed to generate a significant homotypic FETCH score”.

As for “Cx62: human connexin 62 (GJA10), C-terminal fluorescent fusion protein”, in the assay on HEK 293FT cells, the “homotypic FETCH score (docking)” value is “failed to generate a significant homotypic FETCH score”.

Take “D190A: random alanine scanning mutation of the Cx43 extracellular loops”: the “homotypic FETCH score (docking)” value in the assay on HEK 293FT cells was “retained their ability to homotypically dock”.

In the case of “S182A: random alanine scanning mutation of the Cx43 extracellular loops”, in the assay on HEK 293FT cells, the “homotypic FETCH score (docking)” value is “retained their ability to homotypically dock”.
